In ChEMBL document CHEMBL1909046, “DrugMatrix in vitro pharmacology data” one finds IC50 and Ki data, which are given here for four molecules.

One series addresses Cytochrome P450 2C19 (Homo sapiens, UniProt P33261). The conditions noted are these: bti-tn-5b1-4.
Series [1] in a line: DRUGMATRIX: beta-Lactamase enzyme inhibition (substrate: Nitrocefin). Also noted: species or system Bacillus cereus. The following applies: Not Active = under 50% inhibition at 10 µM.
Another series has as its target T1, D(4) dopamine receptor (Homo sapiens, UniProt P21917).
T1 sequence (P21917 whole entry): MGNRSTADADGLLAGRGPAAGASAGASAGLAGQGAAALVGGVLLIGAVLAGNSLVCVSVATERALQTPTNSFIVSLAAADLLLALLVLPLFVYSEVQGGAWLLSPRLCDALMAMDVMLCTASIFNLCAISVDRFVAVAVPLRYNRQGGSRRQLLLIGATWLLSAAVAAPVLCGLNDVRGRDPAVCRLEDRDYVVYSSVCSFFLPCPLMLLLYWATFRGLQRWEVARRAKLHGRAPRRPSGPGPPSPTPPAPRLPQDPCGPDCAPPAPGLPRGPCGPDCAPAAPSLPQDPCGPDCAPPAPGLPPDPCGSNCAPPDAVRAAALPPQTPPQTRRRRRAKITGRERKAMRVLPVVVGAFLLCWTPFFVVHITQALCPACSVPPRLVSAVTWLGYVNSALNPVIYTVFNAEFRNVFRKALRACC
Put plainly: DRUGMATRIX: Dopamine D4.2 radioligand binding (ligand: [3H] Spiperone). The conditions noted are these: cho-k1; Not Active = under 50% inhibition at 10 µM. It is filed as cell membranes, CHO-K1, Membrane.

The target in series [2] is T2, Angiotensin-converting enzyme (Oryctolagus cuniculus, UniProt P12822).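 Note: enzymatic inhibition of angiotensin-converting enzyme measured with FAPGG as the substrate; in other assays of this panel Not Active means under 50% inhibition at 10 µM.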
T2 sequence (P12822 whole entry): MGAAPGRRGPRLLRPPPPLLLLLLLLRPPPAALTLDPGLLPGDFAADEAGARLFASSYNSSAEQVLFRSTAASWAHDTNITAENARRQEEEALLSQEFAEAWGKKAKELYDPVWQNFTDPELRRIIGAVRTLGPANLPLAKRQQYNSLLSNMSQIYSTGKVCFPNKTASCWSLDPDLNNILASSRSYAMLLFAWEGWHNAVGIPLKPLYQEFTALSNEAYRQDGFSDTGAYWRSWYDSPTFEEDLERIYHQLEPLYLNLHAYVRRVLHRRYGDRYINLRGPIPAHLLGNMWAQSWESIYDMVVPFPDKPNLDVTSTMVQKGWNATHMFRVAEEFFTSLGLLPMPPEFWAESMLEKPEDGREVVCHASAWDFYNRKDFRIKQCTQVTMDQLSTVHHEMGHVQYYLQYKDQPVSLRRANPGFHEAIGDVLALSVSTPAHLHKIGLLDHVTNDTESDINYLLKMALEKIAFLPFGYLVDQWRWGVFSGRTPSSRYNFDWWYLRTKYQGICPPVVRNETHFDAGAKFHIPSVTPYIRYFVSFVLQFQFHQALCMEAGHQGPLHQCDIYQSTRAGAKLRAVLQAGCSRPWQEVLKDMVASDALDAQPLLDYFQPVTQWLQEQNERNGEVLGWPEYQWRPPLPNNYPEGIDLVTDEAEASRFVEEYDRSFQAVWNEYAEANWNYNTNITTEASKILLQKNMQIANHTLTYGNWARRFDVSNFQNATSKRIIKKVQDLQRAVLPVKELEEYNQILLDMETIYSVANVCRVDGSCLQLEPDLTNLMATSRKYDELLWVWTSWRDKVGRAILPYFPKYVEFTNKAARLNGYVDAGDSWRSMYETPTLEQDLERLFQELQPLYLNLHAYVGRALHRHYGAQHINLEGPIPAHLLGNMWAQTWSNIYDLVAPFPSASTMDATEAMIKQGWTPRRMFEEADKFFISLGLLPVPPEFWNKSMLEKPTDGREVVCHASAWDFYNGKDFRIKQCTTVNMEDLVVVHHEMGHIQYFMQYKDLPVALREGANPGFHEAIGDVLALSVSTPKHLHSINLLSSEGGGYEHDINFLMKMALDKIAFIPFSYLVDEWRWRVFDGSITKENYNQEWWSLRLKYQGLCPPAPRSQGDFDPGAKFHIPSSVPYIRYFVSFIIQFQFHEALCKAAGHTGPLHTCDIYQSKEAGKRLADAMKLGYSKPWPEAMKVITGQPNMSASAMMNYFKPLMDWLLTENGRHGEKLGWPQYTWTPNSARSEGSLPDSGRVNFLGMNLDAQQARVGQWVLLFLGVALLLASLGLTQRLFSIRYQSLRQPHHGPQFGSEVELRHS
Type of series: tissue-based, Lung.

Series [3] addresses Protein phosphatase 3 catalytic subunit alpha (Homo sapiens, UniProt Q08209). Also noted: species or system Escherichia coli.
In series [4] the target is T3, C-X-C chemokine receptor type 2 (Homo sapiens, UniProt P25025). Note: in other assays of this panel Not Active means under 50% inhibition at 10 µM.
T3 sequence (P25025 whole entry): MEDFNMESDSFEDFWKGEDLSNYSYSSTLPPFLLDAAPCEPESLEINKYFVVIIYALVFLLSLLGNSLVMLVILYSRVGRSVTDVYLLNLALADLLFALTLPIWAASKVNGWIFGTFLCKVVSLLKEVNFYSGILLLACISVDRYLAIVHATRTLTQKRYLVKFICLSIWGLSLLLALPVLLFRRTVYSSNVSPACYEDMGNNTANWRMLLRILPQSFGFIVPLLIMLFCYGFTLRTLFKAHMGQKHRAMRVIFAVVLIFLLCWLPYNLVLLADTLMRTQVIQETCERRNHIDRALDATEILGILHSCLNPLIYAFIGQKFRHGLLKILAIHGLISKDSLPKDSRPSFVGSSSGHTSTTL
Type of series: cell membranes, Membrane. The conditions noted are these: cho-k1.

A short description of series [5]: DRUGMATRIX: Sodium/nucleoside co-transporter radioligand binding (ligand: nitrobenzylthioinosine). Type of series: cell membranes, Cavia porcellus, Dunkin-Hartley, Cerebral cortex, Membrane. The following applies: Not Active = under 50% inhibition at 10 µM.
A further series has as its target Estrogen receptor beta (Homo sapiens, UniProt Q92731). The conditions noted are these: sf9. Note: in other assays of this panel Not Active means under 50% inhibition at 10 µM.
A short description of series [6]: DRUGMATRIX: GABAA, Muscimol, Central radioligand binding (ligand: [3H] Muscimol). It is filed as cell membranes, Rattus norvegicus, Wistar, Brain, Membrane. The following applies: Not Active = under 50% inhibition at 10 µM.

Estrogen receptor beta, sequence (Q92731 whole entry): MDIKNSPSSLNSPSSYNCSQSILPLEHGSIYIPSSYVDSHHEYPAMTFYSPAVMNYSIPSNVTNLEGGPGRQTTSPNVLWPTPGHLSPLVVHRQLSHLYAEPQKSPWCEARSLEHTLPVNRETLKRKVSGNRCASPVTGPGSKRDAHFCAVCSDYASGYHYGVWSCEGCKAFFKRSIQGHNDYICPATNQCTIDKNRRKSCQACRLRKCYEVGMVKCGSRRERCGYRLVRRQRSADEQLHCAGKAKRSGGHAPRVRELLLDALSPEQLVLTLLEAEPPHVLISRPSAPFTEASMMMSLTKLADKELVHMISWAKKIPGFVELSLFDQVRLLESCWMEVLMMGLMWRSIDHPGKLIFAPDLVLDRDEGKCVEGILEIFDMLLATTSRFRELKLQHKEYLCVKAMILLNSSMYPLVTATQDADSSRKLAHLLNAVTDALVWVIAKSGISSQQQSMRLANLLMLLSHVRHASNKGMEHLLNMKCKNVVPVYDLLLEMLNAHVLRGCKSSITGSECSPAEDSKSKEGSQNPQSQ
Cytochrome P450 2C19, sequence (P33261 whole entry): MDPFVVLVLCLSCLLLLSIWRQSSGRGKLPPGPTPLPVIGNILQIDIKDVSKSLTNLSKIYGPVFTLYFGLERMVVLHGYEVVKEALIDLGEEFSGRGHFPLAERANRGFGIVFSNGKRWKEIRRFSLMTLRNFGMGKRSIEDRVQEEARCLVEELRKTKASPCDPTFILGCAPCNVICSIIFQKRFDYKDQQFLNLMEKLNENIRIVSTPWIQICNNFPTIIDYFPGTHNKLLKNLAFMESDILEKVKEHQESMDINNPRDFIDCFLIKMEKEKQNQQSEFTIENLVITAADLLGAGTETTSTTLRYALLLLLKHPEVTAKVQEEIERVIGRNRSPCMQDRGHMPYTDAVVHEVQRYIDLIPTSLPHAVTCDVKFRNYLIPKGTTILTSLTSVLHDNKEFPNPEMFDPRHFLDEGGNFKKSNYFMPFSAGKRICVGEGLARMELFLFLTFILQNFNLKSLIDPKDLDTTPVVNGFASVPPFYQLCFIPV

Turning to `CNNCc1ccc(C(=O)NC(C)C)cc1` [PROCARBAZINE], the IC50 entry (against Cytochrome P450 2C19; in [1]; on D(4) dopamine receptor; in [2]; in series [3]; in series [4]) was “Not Active” throughout. The IC50 entry (in [5]; on Estrogen receptor beta; in series [6]) was “Not Active” each time. Also, the Ki result (at Cytochrome P450 2C19; in series [1]; in [5]; in series [6]) was “Not Active” each time.
For CADMIUM ACETATE, the IC50 entry (on Cytochrome P450 2C19; in series [1]; at D(4) dopamine receptor; in series [2]; in series [3]; in series [4]) was “Not Active” in each case. Moreover, the half-maximal inhibitory concentration (IC50) entry (in series [5]; on Estrogen receptor beta; in series [6]) was “Not Active” in each case. The Ki result (at Cytochrome P450 2C19; in series [1]; on D(4) dopamine receptor; in series [2]; in [3]; in series [4]) was “Not Active” in each case. Further, the Ki entry (in series [5]; at Estrogen receptor beta; in series [6]) was “Not Active” in each case.
LEAD (II) ACETATE: the IC50 result (at Cytochrome P450 2C19; in [1]; on D(4) dopamine receptor; in [2]; in series [3]; in series [4]) was “Not Active” each time. Also, the 50% inhibitory concentration (IC50) result (in [5]; against Estrogen receptor beta; in series [6]) was “Not Active” in each case. Further, the Ki entry (on Cytochrome P450 2C19; in series [1]; at D(4) dopamine receptor; in series [2]; in series [3]; in [4]) was “Not Active” each time. Also, the Ki result (in [5]; at Estrogen receptor beta; in [6]) was “Not Active” in each case.
As for LIPOPOLYSACCHARIDE E. COLI O55:B5, the concentration for half-maximal inhibition (IC50) result against Cytochrome P450 2C19 is “Not Active”; in series [1] (read-out: IC50), 38.7 nM; on D(4) dopamine receptor it was “Not Active”; in [2], “Not Active”; in series [3] it was “Not Active”; in series [4] it was “Not Active”. Also, the IC50 result (in series [5]; against Estrogen receptor beta; in series [6]) was “Not Active” in each case. The Ki result (on Cytochrome P450 2C19; at D(4) dopamine receptor; in series [2]; in series [3]; in series [4]; in series [5]) was “Not Active” throughout. Besides, the Ki result (on Estrogen receptor beta; in series [6]) was “Not Active” throughout.

In general, IC50 refers to the concentration needed to halve the response being measured.
